Literature values in patent publication US11707464B2, “Methods of treating heavy menstrual bleeding” (AbbVie Inc., priority 2013, dated 2023).

Tested on: women with symptomatic uterine fibroids
Details: 185 women with HMB associated with uterine fibroids; through 6 months; cited from earlier work

SMILES: CCNC(=O)[C@@H]1CCCN1C(=O)[C@H](CCCN=C(N)N)NC(=O)[C@H](CC(C)C)NC(=O)[C@@H](Cc1c[nH]c2ccccc12)NC(=O)[C@H](Cc1ccc(O)cc1)NC(=O)[C@H](CO)NC(=O)[C@H](Cc1c[nH]c2ccccc12)NC(=O)[C@H](Cc1cnc[nH]1)NC(=O)[C@@H]1CCC(=O)N1 [deslorelin]
- efficacy (reduction in uterine bleeding and volume) when dosed with low-dose transdermal E2: maintained
